The values that follow come from patent US12583845B2, “Compositions and methods for treating diseases, disorders and conditions involving trinucleotide repeats” (The Research Foundation for the State University of New York, priority 2021, dated 2026).

“Also recorded” adds a separate entry of the source.

For data set [1], the system named is Dmpk^480/480 mice. Kind of data set: RT-PCR splicing rescue in Dmpk480/480 DM1 mouse model (choroid plexus/CNS). It is filed as in vivo. Conditions: for RT-PCR splicing rescue of Lnf2 exon22: choroid plexus of Dmpk^480/480 mice (N=2), 10 mg/kg, FIG. 8B. The text has this:
(§1) New MPCs, including HM33, are being systematically designed to study bioavailability. […] Systematic modification of current MPCs (See e.g., FIGS. 5A and 5B) is used to assess the contribution of each change to bioavailability with the goal of improving BBB and other organ penetration.
(§2) Short-term Studies: To select excellent candidates for long-term studies, cohorts (N=6) of one-month old age- and gender-matched animals from both muscle (homozygous HSALR/LR or heterozygous HSAXLR) and brain (Dmpk480/480) mouse models are treated. Both transgenic (N=6) and matching wild-type (N=6) mice are treated every two days at 3 different concentrations of lead MPCs (2, 5 and 10 mg/kg) or PBS via IP injection for a period of 1 week. The 48-hour injection schedule and starting concentrations are based upon previous treatment regimens and preliminary pharmacokinetic analysis. However, the schedule or treatments is subject to change depending upon the candidate compound's history and performance in e.g., Steps 1 and 2 of FIG. 1. After 1 week of treatment, mice are tested for health (body weight, body condition score) then sacrificed, and muscle tissue (tibialis anterior, vastus lateralis, liver, kidney & brain) harvested and tested for in vivo changes in molecular (foci, splicing and MBNL1 colocalization) and histopathological features (central nuclei, HSA-based models only). To assess molecular features, frozen muscle samples are tested for: mis-splicing changes (RT-PCR and RNAseq); transgene and endogenous DMPK expression (qRT-PCR); off-target effects (RNAseq); RNA foci (FISH); MBNL1 colocalization (FISH/IF); CLCN1 staining (IF); and central nuclei (H&E). Frozen muscle and brain samples from each mouse model are analyzed by UPLC-MS/MS to determine preliminary bioavailability, which is correlated with molecular activity (muscle only for HSA-based and brain only for DMPK480/480) to assess therapeutic potential.

Data set [2] concerns HSA^LR/LR mice. As to the kind of experiment: RT-PCR splicing rescue in HSALR/LR DM1 mouse model (muscle). It is filed as in vivo. Conditions: for rescue of mis-splicing (DM1 splicing) in HSALR mice: HSALR mouse model; for RT-PCR splicing rescue of Atp2a1 exon 22: TA muscle of HSA^LR/LR mice (N=2), 7 days, FIG. 8A.
Source text: as §1
as §2, with “The” for “Short-term Studies: To select excellent candidates for long-term studies, cohorts (N=6) of one-month old age- and gender-matched animals from both muscle (homozygous HSALR/LR or heterozygous HSAXLR) and brain (Dmpk480/480) mouse models are treated. Both transgenic (N=6) and matching wild-type (N=6) mice are treated every two days at 3 different concentrations of lead MPCs (2, 5 and 10 mg/kg) or PBS via IP injection for a period of 1 week. The”

The test system of data set [3] is DM1 fibroblasts. Kind of data set: RT-PCR analysis of INSR exon 11 mis-splicing in DM1 fibroblasts. The class given is cell-based, human. Conditions: FIG. 2B. The protocol:
(§3) FIG. 2A presents the chemical structures of furamidine, HM19A and HM19B. […] (ANOVA two-tailed test, *p<0.05 and **p<0.01).
(§4) DM splicing panel analysis: MPCs are evaluated starting with HM19A &19B in control and DM cells using a 5-point dose-response treatment. Data from the characterization of multiple DM1 & DM2 fibroblast supports this splicing panel and the utility of fibroblasts as a screening tool (See FIGS. 7A-E).

Data set [4] relates to DM1 and DM2 cell lines. Kind of data set: Splicing rescue and toxicity in DM1 and DM2 patient-derived cell lines. It is filed as cell-based, human. Conditions: DM fibroblasts and myotubes; nanomolar range where stated.
Source text: Referring to FIG. 1, Step 2, a process flow includes characterizing the best-in-class MPCs for in cellulo activity and therapeutic potential. Rationale and preliminary data: Because of the multisystemic nature of pathogenesis in myotonic dystrophy, it is desirable to evaluate the therapeutic potential of excellent MPCs in multiple DM cellular models as well as in control models in order to best prioritize compounds for in vivo testing. The cellular activity of MPC lead panel is systematically evaluated starting with HM19A & HM19B in 2 independent DM1 and DM2 patient-derived fibroblast lines and 2 independent DM1 myoblast/myotube differentiation models along with age and gender-matched control cell lines. Potential blood brain barrier penetrance is evaluated using the established MDR1-MDCK monolayer assay. This aim will facilitate the informed selection of the top performing compounds in cellular studies for testing in animal models of DM (See e.g., FIG. 1, step 3).
as §4

Data set [5] has as its system DM1 fibroblast. As to the kind of experiment: MTT cell viability in DM1 fibroblast. The class given is cell-based, human. Conditions: for MTT cell viability: DM1 fibroblast, low micromolar concentrations, FIG. 2C. As for the experimental part:
as §3
Effects on cellular health: To monitor the overall health of cells, treated vs. untreated control and DM patient fibroblast and myoblast/myotube lines are tested across a dose range where one observes a reduction in toxic CUG/CCUG RNA levels and rescue of mis-splicing. Cell health is monitored using the lactate dehydrogenase (LDH) and methylthiazol tetrazolium (MTT) assays, to measure membrane integrity (cell death) and metabolic activity (cell viability), along with monitoring rates of cell growth. Mutagenicity is assessed using the Ames test. Alterations in cell death, cell viability and rates of cell growth and mutagenicity is combined with data from control cells to determine the overall effect on cell health due to MPC treatment. As shown in FIGS. 2A-2E, HM19B rescues splicing at more than 50-fold lower concentrations than at concentrations where cell death is starting to be observed.

The subject of data set [6] is DM2 fibroblasts. As to the kind of experiment: RT-PCR analysis of INSR exon 11 mis-splicing in DM2 fibroblasts. The class given is cell-based, human. Conditions: FIG. 2B. As for the experimental part:
as §3, §4

The subject of data set [7] is CUG repeat RNA. Kind of data set: Circular dichroism (CD) spectroscopy with CUG repeat RNA. It is filed as binding. (In general: Circular dichroism is widely used to follow secondary structure.)
Data set [8] has as its system DM1 myoblasts. Kind of data set: RT-PCR analysis of mis-splicing events in DM1 myoblasts. The class given is cell-based, human. Conditions: nanomolar concentrations, FIG. 2D.
Source text: as §3

The test system of data set [9] is patient-derived myotubes. As to the kind of experiment: DM1 splicing rescue in patient-derived myotubes. The class given is cell-based, human.

Regarding `N=C(N)c1ccc(-c2ccc(-c3ccc(C(=N)N)cn3)o2)nc1` [DB829, reference compound], the “RT-PCR splicing rescue of Lnf2 exon22” value in data set [1] is given as “splicing rescue”.

Take `c1ccc2[nH]c(-c3ccc(-c4ccc(-c5ccc(-c6nc7ccccc7[nH]6)cc5)o4)cc3)nc2c1` [HM19A]: in data set [2], the “rescue of mis-splicing (DM1 splicing) in HSALR mice” value is given as “significantly rescuing mis-splicing” and the “RT-PCR splicing rescue of Atp2a1 exon 22” value is listed as “splicing rescue”. The “rescue of INSR exon 11 mis-splicing” value in data set [3] is recorded as “strong rescue”. For the same molecule, the “splicing rescue in patient-derived cell lines” value in [4] was “significantly rescuing mis-splicing”. Moreover, the MTT cell viability entry in data set [5] is “no effect on viability”. Further, the “rescue of INSR exon 11 mis-splicing” value in data set [6] is reported as “strong rescue”.

For the molecule `CN1CCN(c2ccc3nc(-c4ccc(-c5ccc6c(c5)oc5cc(-c7ccc(-c8nc9ccc(N%10CCN(C)CC%10)cc9[nH]8)cc7)ccc56)cc4)[nH]c3c2)CC1` [HM19B], in data set [2], the “rescue of mis-splicing (DM1 splicing) in HSALR mice” value was “significantly rescuing mis-splicing” and the “RT-PCR splicing rescue of Atp2a1 exon 22” value is listed as “splicing rescue”. For the same molecule, the “interaction with CUG repeat RNA by CD spectroscopy” value in data set [7] is “surface interaction between ligand and substrate”. In data set [3], the “rescue of INSR exon 11 mis-splicing” value is on record as “strong rescue”. Besides, in [1] (Dmpk^480/480 mice, FIG. 8C), the “rescue in the CNS compared to DB829” value is listed as “reduced rescue”. For the same molecule, the “RT-PCR splicing rescue of Lnf2 exon22” value in data set [1] is “splicing rescue”. Also, the “rescue in the Dmpk480/480 mice” value in data set [1] (early preliminary data) was “capable of rescue”. Further, in [4], the “splicing rescue in patient-derived cell lines” value is listed as “splicing rescue at the nanomolar concentration; also recorded: significantly rescuing mis-splicing”. In data set [8], the “rescue of MBNL1 exon 5 mis-splicing” value is listed as “promising rescue” and the “rescue of MBNL2 exon 5 mis-splicing” value was “promising rescue”. In data set [5], the MTT cell viability entry was “no effect on viability”. In addition, the “concentration margin between splicing rescue and concentrations where cell death is starting to be observed” value in data set [5] (FIGS. 2A-2E) was “more than 50 fold”. In addition, the “rescue of INSR exon 11 mis-splicing” value in data set [6] was “strong rescue”.

Turning to `COc1cc2c(c(OC)c1OC)-c1ccc(OC)c(=O)cc1[C@@H](NC(C)=O)CC2` [colchicine], the “rescue of DM1 splicing” value in data set [9] is “rescue DM1 splicing”.
